# Results published in ChEMBL document CHEMBL1681651, “A broad spectrum anticancer nucleoside with selective toxicity against human colon cells in vitro” (2011).
# Key:
# Format in all cases: functional
# TK-10 = experiment: Growth inhibition of human TK10 cells assessed as cell growth at 100 uM after 48 hrs by SRB assay; conditions: TK-10, 48 h, read-out: Activity
# NCI-H226 [1] = experiment: Growth inhibition of human NCI-H226 cells assessed as cell growth at 0.1 uM after 48 hrs by SRB assay; conditions: NCI-H226, 48 h, read-out: Activity
# MDA-MB-231 [2] = experiment: Growth inhibition of human MDA-MB-231 cells assessed as cell growth at 10 uM after 48 hrs by SRB assay; conditions: MDA-MB-231, 48 h, read-out: Activity
# 786-0 = experiment: Growth inhibition of human 786-0 cells assessed as cell growth at 0.1 uM after 48 hrs by SRB assay; conditions: 786-0, 48 h, read-out: Activity
# HCT-116 = experiment: Growth inhibition of human HCT116 cells assessed as cell growth at 1 uM after 48 hrs by SRB assay; conditions: HCT-116, 48 h, read-out: Activity
# HCC 2998 = experiment: Growth inhibition of human HCC2998 cells assessed as cell growth at 100 uM after 48 hrs by SRB assay; conditions: HCC 2998, 48 h, read-out: Activity
# SNB-75 [3] = experiment: Growth inhibition of human SNB75 cells assessed as cell growth at 0.1 uM after 48 hrs by SRB assay; conditions: SNB-75, 48 h, read-out: Activity
# T47D = experiment: Growth inhibition of human T47D cells after 48 hrs by […] growth inhibition assay
# U-251 = experiment: Growth inhibition of human U251 cells assessed as cell growth at 100 uM after 48 hrs by SRB assay; conditions: U-251, 48 h, read-out: Activity
# OVCAR-5 [4] = experiment: Growth inhibition of human OVCAR5 cells after 48 hrs by […] growth inhibition assay; conditions: OVCAR-5, 48 h
# NCI-H226 [5] = experiment: Growth inhibition of human NCI-H226 cells assessed as cell growth at 1 mM after 48 hrs by SRB assay; conditions: NCI-H226, 48 h, read-out: Activity
# EKVX [6] = experiment: Growth inhibition of human EKVX cells after 48 hrs by […] growth inhibition assay
# HT-29 [7] = experiment: Growth inhibition of human HT-29 cells after 48 hrs by […] growth inhibition assay; conditions: HT-29, 48 h
# COLO 205 = experiment: Growth inhibition of human COLO205 cells assessed as cell growth at 1 uM after 48 hrs by SRB assay; conditions: COLO 205, 48 h, read-out: Activity
# SF-295 = experiment: Growth inhibition of human SF295 cells assessed as cell growth at 100 uM after 48 hrs by SRB assay; conditions: SF-295, 48 h, read-out: Activity
# CAKI-1 [8] = experiment: Growth inhibition of human Caki1 cells assessed as cell growth at 1 mM after 48 hrs by SRB assay; conditions: CAKI-1, 48 h, read-out: Activity
# NCI-H460 = experiment: Growth inhibition of human NCI-H460 cells assessed as cell growth at 1 mM after 48 hrs by SRB assay; conditions: NCI-H460, 48 h, read-out: Activity
# OVCAR-8 = experiment: Growth inhibition of human OVCAR8 cells assessed as cell growth at 1 mM after 48 hrs by SRB assay; conditions: OVCAR-8, 48 h, read-out: Activity
# ACHN [9] = experiment: Growth inhibition of human ACHN cells assessed as cell growth at 100 uM after 48 hrs by SRB assay; conditions: read-out: Activity
# HT-29 [10] = experiment: Growth inhibition of human HT-29 cells assessed as cell growth at 1 uM after 48 hrs by SRB assay; conditions: HT-29, 48 h, read-out: Activity
# LOX IMVI = experiment: Growth inhibition of human LOXIMVI cells assessed as cell growth at 1 uM after 48 hrs by SRB assay; conditions: read-out: Activity
# HOP-62 = experiment: Growth inhibition of human HOP62 cells assessed as cell growth at 100 uM after 48 hrs by SRB assay; conditions: HOP-62, 48 h, read-out: Activity
# RXF 393 = experiment: Growth inhibition of human RXF393 cells assessed as cell growth at 1 mM after 48 hrs by SRB assay; conditions: RXF 393, 48 h, read-out: Activity
# MDA-MB-231 [11] = experiment: Growth inhibition of human MDA-MB-231 cells assessed as cell growth at 1 mM after 48 hrs by SRB assay; conditions: MDA-MB-231, 48 h, read-out: Activity
# EKVX [12] = experiment: Growth inhibition of human EKVX cells assessed as cell growth at 1 uM after 48 hrs by SRB assay; conditions: read-out: Activity
# SK-MEL-28 = experiment: Growth inhibition of human SK-MEL-28 cells after 48 hrs by […] growth inhibition assay; conditions: SK-MEL-28, 48 h
# CAKI-1 [13] = experiment: Growth inhibition of human Caki1 cells assessed as cell growth at 1 uM after 48 hrs by SRB assay; conditions: CAKI-1, 48 h, read-out: Activity
# UACC-62 = experiment: Growth inhibition of human UACC62 cells assessed as cell growth at 1 uM after 48 hrs by SRB assay; conditions: UACC-62, 48 h, read-out: Activity
# ACHN [14] = experiment: Growth inhibition of human ACHN cells assessed as cell growth at 1 uM after 48 hrs by SRB assay; conditions: read-out: Activity
# CCRF-CEM = experiment: Growth inhibition of human CCRF-CEM cells assessed as cell growth at 10 uM after 48 hrs by SRB assay; conditions: read-out: Activity
# OVCAR-5 [15] = experiment: Growth inhibition of human OVCAR5 cells assessed as cell growth at 100 uM after 48 hrs by SRB assay; conditions: OVCAR-5, 48 h, read-out: Activity
# NCI-H522 = experiment: Growth inhibition of human NCI-H522 cells assessed as cell growth at 10 uM after 48 hrs by SRB assay; conditions: NCI-H522, 48 h, read-out: Activity
# KM12 = experiment: Growth inhibition of human KM12 cells assessed as cell growth at 1 uM after 48 hrs by SRB assay; conditions: KM12, 48 h, read-out: Activity
# A498 = experiment: Growth inhibition of human A498 cells assessed as cell growth at 1 uM after 48 hrs by SRB assay; conditions: A498, 48 h, read-out: Activity
# SNB-75 [16] = experiment: Growth inhibition of human SNB75 cells assessed as cell growth at 1 mM after 48 hrs by SRB assay; conditions: SNB-75, 48 h, read-out: Activity
# [17] = read-out: LC50 (the source's name)
# [18] = read-out: pLC50 (the source's name) (converted)
smiles,measurement,setting,value
CCOC(=O)C[C@H]1[C@@H](O[Si](C)(C)C(C)(C)C)[C@H](n2cnc3c(NC(=O)Nc4ccccc4)ncnc32)O[C@@H]1CNC(=O)NC,growth at 100 µM,TK-10,59%
same,growth at 0.1 µM,NCI-H226 [1],101%
same,growth at 10 µM,MDA-MB-231 [2],94%
same,growth at 0.1 µM,786-0,92%
same,growth at 1 µM,HCT-116,113%
same,growth at 100 µM,HCC 2998,69%
same,growth at 0.1 µM,SNB-75 [3],92%
same,GI50,T47D; read-out: GI50,2.55 µM
same,CC50,T47D; [17],> 100 µM
same,TGI,T47D; read-out: TGI,> 100 µM
same,GI50,T47D; read-out: pGI50 (converted),2.57 µM
same,CC50,T47D; [18],> 100 µM
same,TGI,T47D; read-out: pTGI (converted),> 100 µM
same,growth at 100 µM,U-251,28%
same,GI50,OVCAR-5 [4]; read-out: GI50,31.1 µM
same,CC50,OVCAR-5 [4]; [17],> 100 µM
same,TGI,OVCAR-5 [4]; read-out: TGI,> 100 µM
same,GI50,OVCAR-5 [4]; read-out: pGI50 (converted),30.9 µM
same,CC50,OVCAR-5 [4]; [18],> 100 µM
same,TGI,OVCAR-5 [4]; read-out: pTGI (converted),> 100 µM
same,growth at 1000 µM,NCI-H226 [5],55%
same,GI50,EKVX [6]; read-out: GI50,17.7 µM
same,CC50,EKVX [6]; [17],> 100 µM
same,TGI,EKVX [6]; read-out: TGI,> 100 µM
same,GI50,EKVX [6]; read-out: pGI50 (converted),17.8 µM
same,CC50,EKVX [6]; [18],> 100 µM
same,TGI,EKVX [6]; read-out: pTGI (converted),> 100 µM
same,GI50,HT-29 [7]; read-out: GI50,4.2 µM
same,CC50,HT-29 [7]; [17],> 100 µM
same,TGI,HT-29 [7]; read-out: TGI,> 100 µM
same,GI50,HT-29 [7]; read-out: pGI50 (converted),4.17 µM
same,CC50,HT-29 [7]; [18],> 100 µM
same,TGI,HT-29 [7]; read-out: pTGI (converted),> 100 µM
same,growth at 1 µM,COLO 205,97%
same,growth at 100 µM,SF-295,38%
same,growth at 1000 µM,CAKI-1 [8],7%
same,growth at 1000 µM,NCI-H460,-49%
same,growth at 1000 µM,OVCAR-8,-4%
same,growth at 100 µM,ACHN [9],47%
same,growth at 1 µM,HT-29 [10],105%
same,growth at 1 µM,LOX IMVI,97%
same,growth at 100 µM,HOP-62,48%
same,growth at 1000 µM,RXF 393,-59%
same,growth at 1000 µM,MDA-MB-231 [11],-13%
same,growth at 1 µM,EKVX [12],90%
same,GI50,SK-MEL-28; read-out: GI50,6.85 µM
same,CC50,SK-MEL-28; [17],48.7 µM
same,TGI,SK-MEL-28; read-out: TGI,20.2 µM
same,GI50,SK-MEL-28; read-out: pGI50 (converted),6.92 µM
same,CC50,SK-MEL-28; [18],> 49 µM
same,TGI,SK-MEL-28; read-out: pTGI (converted),20.4 µM
same,growth at 1 µM,CAKI-1 [13],95%
same,growth at 1 µM,UACC-62,102%
same,growth at 1 µM,ACHN [14],97%
same,growth at 10 µM,CCRF-CEM,92%
same,growth at 100 µM,OVCAR-5 [15],72%
same,growth at 10 µM,NCI-H522,83%
same,growth at 1 µM,KM12,112%
same,growth at 1 µM,A498,92%
same,growth at 1000 µM,SNB-75 [16],22%
